Values quoted from earlier work as cited in patent publication US20260054267A1, “PRODUCTION OF ENCAPSULATED NANOPARTICLES AT COMMERCIAL SCALE” (ICEUTICA PTY LTD., priority 2009, published 2026).

Conditions: slowly absorbed by the body

Tmax: 4 to 5 h
SMILES: Cc1cnc(NC(=O)C2=C(O)c3ccccc3S(=O)(=O)N2C)s1 [Meloxicam]
